# Measured values published in patent US12201611B2, “Composition comprising high purity pyrrole derivative and method for preparation thereof” (Zydus Lifesciences Limited, priority 2020, dated 2025).
# What was measured:
# [1] = Stability data at 40° C. ± 2° C. and 75% ± 5% relative humidity (six months); type: physicochemical; details: 75% ± 5% RH
# Procedure: (§1) As used herein, the term “prolonged storage” refers to storage for up to 6 months and different stability conditions refers to storage at 25° C. temperature and 60% relative humidity; or at 40° C. temperature and 75% relative humidity.
# (§2) In another general aspect, there is provided a stable composition of Saroglitazar magnesium, wherein the composition contains Saroglitazar magnesium having purity of about 99.0% or more, by weight, by area percentage of HPLC, and one or more of the aldehyde compound of Formula (II), the diketo oxirane compound of Formula (III), the hydroxy methyl compound of Formula (IV), or the dimer compound of Formula (V) in an amount of about 0.15%, or less, by weight, relative to saroglitazar magnesium, on prolonged storage and under different stability conditions i.e. 40° C.±2° C. temperature and 75%±5% relative humidity and at 25° C.±2° C. temperature and 60±5% relative humidity as outlined by the six months' stability data as shown in Table-2 and 3.
# (§3) The purity of the samples of Saroglitazar or salts thereof including magnesium and SMBA salt is measured by area percentage of HPLC using following conditions:
# (§4) Equipment: Shimadzu LC2020CHT HPLC system or equivalent
# (§5) Column: YMC-Pack Pro C18 ([…]×4.0 mm, 3 μm)
# (§6) Detector: UV-VIS detector or PDA detector
# (§7) Column Oven Temp.: 25° C.
# [2] = Stability data at 25° C. ± 2° C. and 60% ± 5% relative humidity (six months); type: physicochemical; details: 60% ± 5% RH
# Procedure: as §1, §2, §3, §4, §5, §6, §7
substance,measurement,setting,value
2-ethoxy-3-(4-(2-(2-methyl-5-(4-(methylthio)phenyl)-1H-pyrrol-1-yl)ethoxy)phenyl)propanoate [Saroglitazar magnesium],LOD,[1]; 1 month,0.48 % w/w
same,Related Substance by HPLC: Formula II,[1]; 1 month,0.01 % w/w
same,Related Substance by HPLC: Formula V,[1]; 1 month,0.12 % w/w
same,Related Substance by HPLC: Total impurities,[1]; 1 month,0.12 % w/w
same,LOD,[1]; 2 month,0.44 % w/w
same,Related Substance by HPLC: Formula II,[1]; 2 month,0.01 % w/w
same,Related Substance by HPLC: Formula V,[1]; 2 month,0.12 % w/w
same,Related Substance by HPLC: Total impurities,[1]; 2 month,0.12 % w/w
same,LOD,[1]; 3 months,0.30 % w/w
same,Related Substance by HPLC: Formula II,[1]; 3 months,0.01 % w/w
same,Related Substance by HPLC: Formula V,[1]; 3 months,0.11 % w/w
same,Related Substance by HPLC: Total impurities,[1]; 3 months,0.12 % w/w
same,LOD,[1]; 6 months,0.24 % w/w
same,Related Substance by HPLC: Formula V,[1]; 6 months,0.12 % w/w
same,Related Substance by HPLC: Total impurities,[1]; 6 months,0.12 % w/w
same,LOD,[1]; Initial,0.51 % w/w
same,Related Substance by HPLC: Formula II,[1]; Initial,0.01 % w/w
same,Related Substance by HPLC: Formula V,[1]; Initial,0.11 % w/w
same,Related Substance by HPLC: Total impurities,[1]; Initial,0.18 % w/w
same,LOD,[2]; 1 month,0.43 % w/w
same,Related Substance by HPLC: Formula II,[2]; 1 month,0.01 % w/w
same,Related Substance by HPLC: Formula V,[2]; 1 month,0.12 % w/w
same,Related Substance by HPLC: Total impurities,[2]; 1 month,0.12 % w/w
same,LOD,[2]; 2 month,0.64 % w/w
same,Related Substance by HPLC: Formula II,[2]; 2 month,0.01 % w/w
same,Related Substance by HPLC: Formula V,[2]; 2 month,0.12 % w/w
same,Related Substance by HPLC: Total impurities,[2]; 2 month,0.12 % w/w
same,LOD,[2]; 3 months,0.27 % w/w
same,Related Substance by HPLC: Formula II,[2]; 3 months,0.01 % w/w
same,Related Substance by HPLC: Formula V,[2]; 3 months,0.12 % w/w
same,Related Substance by HPLC: Total impurities,[2]; 3 months,0.12 % w/w
same,LOD,[2]; 6 months,0.35 % w/w
same,Related Substance by HPLC: Formula V,[2]; 6 months,0.12 % w/w
same,Related Substance by HPLC: Total impurities,[2]; 6 months,0.12 % w/w
same,LOD,[2]; Initial,0.51 % w/w
same,Related Substance by HPLC: Formula II,[2]; Initial,0.01 % w/w
same,Related Substance by HPLC: Formula V,[2]; Initial,0.11 % w/w
same,Related Substance by HPLC: Total impurities,[2]; Initial,0.18 % w/w
